From patent US20230151363A1, “MODIFIED SHORT-INTERFERING RNA COMPOSITIONS AND THEIR USE IN THE TREATMENT OF CANCER” (THE RESEARCH FOUNDATION FOR THE STATE UNIVERSITY OF NEW YORK, priority 2020, published 2023)

System: BCL-2 protein
Test: Western immunoblot analysis of BCL-2 protein
Format: cell-based, human
Details: cancer cells treated with 5-FU alone
Method: Western immunoblot analysis. Twenty-four hours prior to transfection 1×10^5 cells were plated in 6 well plates. Cells were either transfected using Oligofectamine (Thermo Fischer) or no transfection vehicle, with 50 nM control (scrambled) siRNA (Thermo Fischer), unmodified siBCL2 or an exemplary modified siBCL2 siRNA. Three days following transfection protein was collected in RIPA buffer with protease inhibitor (Sigma). Equal amounts of protein (15 μg), were separated on 12% sodium dodecyl sulfate-polyacrylamide gels as described in Laemmli U K. Nature. 1970; 227(5259) pp. 680-685, the entire contents of which is incorporated herein by reference. Proteins were probed with anti-BCL2 antibody (1:1000) (Thermo Fischer) and anti-GAPDH antibody (1:100000) (Santa Cruz). Horseradish peroxidase conjugated secondary antibodies against mouse or rabbit (1:5000, Santa Cruz Biotech Inc.) were added. Protein bands were then visualized with autoradiography film using SuperSignal West Pico Chemiluminescent Substrate (Thermo Fischer).

`O=c1[nH]cc(F)c(=O)[nH]1` [5-FU, 5-fluoro-1H-pyrimidine-2,4-dione] was tested, and the “BCL-2 expression (Western blot)” value was “does not result in reduction of BCL-2 expression”.
